Results published in patent US12398101B2, “Herbicidal 2-azaspiro[3-5]nonane compounds” (SYNGENTA CROP PROTECTION AG, priority 2018, dated 2025).

Legend:
Type in all cases: in vivo
Conditions in all cases: 250 g/h, evaluated after 13 days
Setaria faberi (SETFA) [1] = assay: Glasshouse herbicide test, post-emergence application
Procedure: (§1) Seeds of a variety of test species are sown in standard soil in pots (Lolium perenne (LOLPE), Setaria faberi (SETFA), Echinochloa crus-galli (ECHCG), Avena fatua (AVEFA)). After cultivation for one day (pre-emergence) or after 8 days cultivation (post-emergence) under controlled conditions in a glasshouse (at 24/16° C., day/night; 14 hours light; 65% humidity), the plants are sprayed with an aqueous spray solution derived from the formulation of the technical active ingredient in acetone/water (50:50) solution containing 0.5% Tween 20 (polyoxyethelyene sorbitan monolaurate, CAS RN 9005-64-5). Compounds are applied at 250 g/h. The test plants are then grown in a glasshouse under controlled conditions in a glasshouse (at 24/16° C., day/night; 14 hours light; 65% humidity) and watered twice daily. After 13 days for pre and post-emergence, the test is evaluated for the percentage damage caused to the plant. The biological activities are shown in the following table on a five point scale (5=80-100%; 4=60-79%; 3=40-59%; 2=20-39%; 1=0-19%).

Lolium perenne (LOLPE) [2] = assay: as above
Procedure: as §1

Avena fatua (AVEFA) [3] = assay: as above
Procedure: as §1

[4] = tested on: Echinochloa crus-galli (ECHCG); assay: as above
Procedure: as §1

Setaria faberi (SETFA) [5] = assay: Glasshouse herbicide test, pre-emergence application
Procedure: as §1

Lolium perenne (LOLPE) [6] = assay: as above
Procedure: as §1

Avena fatua (AVEFA) [7] = assay: as above
Procedure: as §1

[8] = tested on: Echinochloa crus-galli (ECHCG); assay: as above
Procedure: as §1

CC#Cc1cc(C)c(C2C(=O)CC3(CC2=O)CN(C(=O)C(C)(C)C)C3)c(C)c1 [Compound 1.010]
5 (5=80-100%): percentage damage caused to the plant, five point scale, SETFA (Setaria faberi (SETFA) [1]) | percentage damage caused to the plant, five point scale, LOLPE (Lolium perenne (LOLPE) [2]) | percentage damage caused to the plant, five point scale, AVEFA (Avena fatua (AVEFA) [3]) | percentage damage caused to the plant, five point scale, ECHCG [4] | percentage damage caused to the plant, five point scale, SETFA (Setaria faberi (SETFA) [5]) | percentage damage caused to the plant, five point scale, LOLPE (Lolium perenne (LOLPE) [6]) | percentage damage caused to the plant, five point scale, AVEFA (Avena fatua (AVEFA) [7]) | percentage damage caused to the plant, five point scale, ECHCG [8]

CC#Cc1cc(Cl)c(C2C(=O)CC3(CC2=O)CN(C(=O)C2CC2)C3)c(OC)c1 [Compound 1.196]
5 (5=80-100%): percentage damage caused to the plant, five point scale, SETFA (Setaria faberi (SETFA) [1]) | percentage damage caused to the plant, five point scale, LOLPE (Lolium perenne (LOLPE) [2]) | percentage damage caused to the plant, five point scale, AVEFA (Avena fatua (AVEFA) [3]) | percentage damage caused to the plant, five point scale, ECHCG [4] | percentage damage caused to the plant, five point scale, SETFA (Setaria faberi (SETFA) [5]) | percentage damage caused to the plant, five point scale, LOLPE (Lolium perenne (LOLPE) [6]) | percentage damage caused to the plant, five point scale, AVEFA (Avena fatua (AVEFA) [7]) | percentage damage caused to the plant, five point scale, ECHCG [8]

CC#Cc1cc(C)c(C2C(=O)CC3(CC2=O)CN(S(=O)(=O)CC)C3)c(OC)c1 [Compound 1.014]
5 (5=80-100%): percentage damage caused to the plant, five point scale, SETFA (Setaria faberi (SETFA) [1]) | percentage damage caused to the plant, five point scale, LOLPE (Lolium perenne (LOLPE) [2]) | percentage damage caused to the plant, five point scale, AVEFA (Avena fatua (AVEFA) [3]) | percentage damage caused to the plant, five point scale, ECHCG [4] | percentage damage caused to the plant, five point scale, SETFA (Setaria faberi (SETFA) [5]) | percentage damage caused to the plant, five point scale, LOLPE (Lolium perenne (LOLPE) [6]) | percentage damage caused to the plant, five point scale, AVEFA (Avena fatua (AVEFA) [7]) | percentage damage caused to the plant, five point scale, ECHCG [8]

CC#Cc1cc(C)c(C2C(=O)CC3(CC2=O)CN(C(=O)c2ccccc2)C3)c(C)c1 [Compound 1.003, 2-benzoyl-7-(2,6-dimethyl-4-prop-1-ynyl-phenyl)-2-azaspiro[3.5]nonane-6,8-dione]
5 (5=80-100%): percentage damage caused to the plant, five point scale, SETFA (Setaria faberi (SETFA) [1]) | percentage damage caused to the plant, five point scale, LOLPE (Lolium perenne (LOLPE) [2]) | percentage damage caused to the plant, five point scale, AVEFA (Avena fatua (AVEFA) [3]) | percentage damage caused to the plant, five point scale, ECHCG [4] | percentage damage caused to the plant, five point scale, SETFA (Setaria faberi (SETFA) [5]) | percentage damage caused to the plant, five point scale, LOLPE (Lolium perenne (LOLPE) [6]) | percentage damage caused to the plant, five point scale, AVEFA (Avena fatua (AVEFA) [7]) | percentage damage caused to the plant, five point scale, ECHCG [8]

CC#Cc1cc(C)c(C2C(=O)CC3(CC2=O)CN(C(=O)c2ccccc2)C3)c(OC)c1 [Compound 1.015]
5 (5=80-100%): percentage damage caused to the plant, five point scale, SETFA (Setaria faberi (SETFA) [1]) | percentage damage caused to the plant, five point scale, LOLPE (Lolium perenne (LOLPE) [2]) | percentage damage caused to the plant, five point scale, AVEFA (Avena fatua (AVEFA) [3]) | percentage damage caused to the plant, five point scale, ECHCG [4] | percentage damage caused to the plant, five point scale, SETFA (Setaria faberi (SETFA) [5]) | percentage damage caused to the plant, five point scale, LOLPE (Lolium perenne (LOLPE) [6]) | percentage damage caused to the plant, five point scale, AVEFA (Avena fatua (AVEFA) [7]) | percentage damage caused to the plant, five point scale, ECHCG [8]

CC#Cc1cc(C)c(C2C(=O)CC3(CC2=O)CN(C(=O)C(F)F)C3)c(C)c1 [Compound 1.009]
5 (5=80-100%): percentage damage caused to the plant, five point scale, SETFA (Setaria faberi (SETFA) [1]) | percentage damage caused to the plant, five point scale, LOLPE (Lolium perenne (LOLPE) [2]) | percentage damage caused to the plant, five point scale, AVEFA (Avena fatua (AVEFA) [3]) | percentage damage caused to the plant, five point scale, ECHCG [4] | percentage damage caused to the plant, five point scale, SETFA (Setaria faberi (SETFA) [5]) | percentage damage caused to the plant, five point scale, LOLPE (Lolium perenne (LOLPE) [6]) | percentage damage caused to the plant, five point scale, AVEFA (Avena fatua (AVEFA) [7]) | percentage damage caused to the plant, five point scale, ECHCG [8]

CC#Cc1cc(C)c(C2C(=O)CC3(CC2=O)CN(C(=O)C2CC2)C3)c(C)c1 [Compound 1.008, 2-(cyclopropanecarbonyl)-7-(2,6-dimethyl-4-prop-1-ynyl-phenyl)-2-azaspiro[3.5]nonane-6,8-dione]
5 (5=80-100%): percentage damage caused to the plant, five point scale, SETFA (Setaria faberi (SETFA) [1]) | percentage damage caused to the plant, five point scale, LOLPE (Lolium perenne (LOLPE) [2]) | percentage damage caused to the plant, five point scale, AVEFA (Avena fatua (AVEFA) [3]) | percentage damage caused to the plant, five point scale, ECHCG [4] | percentage damage caused to the plant, five point scale, SETFA (Setaria faberi (SETFA) [5]) | percentage damage caused to the plant, five point scale, LOLPE (Lolium perenne (LOLPE) [6]) | percentage damage caused to the plant, five point scale, AVEFA (Avena fatua (AVEFA) [7]) | percentage damage caused to the plant, five point scale, ECHCG [8]
